Measurements: patent US20220152100A1, “METHODS FOR CONTROLLED ACTIVATION OR ELIMINATION OF THERAPEUTIC CELLS” (Bellicum Pharmaceuticals, Inc., priority 2014, published 2022)
“And” between values parts separate entries of the source, which are not always exact repeats. Equal values may be shown once.

Assays:
[1] = tested on: MSCs; experiment: CID-induced apoptosis of iCasp9-ΔCD19 transduced undifferentiated MSCs
[2] = tested on: human CD3+/GFP+ T cells; experiment: SCID mouse-human xenograft: elimination of iCasp9M-transduced CTLs in tumors; type: in vivo, NOD/SCID mice; conditions: single dose 50 μg intraperitoneally, versus carrier, 3 days after
Experimental: Non-obese diabetic severe combined immunodeficient (NOD/SCID) mice, 6 to 8 weeks of age, were irradiated (250 rad) and injected subcutaneously in the right flank with 10×10^6 to 15×10^6 LCLs resuspended in Matrigel (BD Bioscience). Two weeks later mice bearing tumors that were approximately 0.5 cm in diameter were injected into the tail vein with a 1:1 mixture of nontransduced and iCasp9.I.GFPhigh-transduced EBV CTLs (total 15×10^6). At 4 to 6 hours prior and 3 days after CTL infusion, mice were injected intraperitoneally with recombinant hIL-2 (2000 U; Proleukin; Chiron). […] By FACS analysis, the number of GFP+ cells within the gated CD3^+ population was evaluated. […]
The function of iCasp9M also was evaluated in transduced EBV-CTLs in vivo. […] Three days after CID/carrier administration, tumors were analyzed for human CD3^+/GFP^+ cells. […]
The function of iCasp9M in vivo, was assayed. […] On day 3 after CTL administration, mice received either CID (50 μg AP20187; (black diamonds, n=6) or carrier only (black squares, n=5) and on day 6 the presence of human CD3+/GFP+ T cells in the tumors was analyzed. Human CD3+ T cells isolated from the tumors of a control group of mice that received only nontransduced CTLs (15×10^6 CTLs; n=4) were used as a negative control for the analysis of CD3+/GFP+ T cells within the tumors.

[3] = tested on: gene-modified allodepleted cells (SFG.iCasp9.2A.CD19); experiment: AP20187-induced apoptosis of gene-modified allodepleted T cells (annexin V/7-AAD); type: cell-based, human
Experimental: Suicide gene functionality was assessed by adding a small molecule synthetic homodimerizer, AP20187 (Ariad Pharmaceuticals; Cambridge, Mass.), at 10 nM final concentration the day following CD19 immunomagnetic selection. Cells were stained with annexin V and 7-amino-actinomycin (7-AAD)(BD Pharmingen) at 24 hours and analyzed by flow cytometry. Cells negative for both annexin V and 7-AAD were considered viable, cells that were annexin V positive were apoptotic, and cells that were both annexin V and 7-AAD positive were necrotic. The percentage killing induced by dimerization was corrected for baseline viability as follows: Percentage killing=100%−(% Viability in AP20187-treated cells÷% Viability in non-treated cells).
Cells were maintained in T cell medium containing 50 U/ml IL-2 until 22 days after transduction. A portion of cells was reactivated on 24-well plates coated with […] OKT3 and 1 μg/ml anti-CD28 (Clone CD28.2, BD Pharmingen, San Jose, Calif.) for 48 to 72 hours. CD19 expression and suicide gene function in both reactivated and non-reactivated cells were measured on day 24 or 25 post transduction.
The day following immunomagnetic selection, 10 nM of the chemical inducer of dimerization, AP20187, was added to induce apoptosis, which appeared within 24 hours. […] Killing efficiency after correction for baseline viability was about 92.9%±3.8%. Large-scale CD19 selection produced cells that were killed with similar efficiency as small-scale selection: mean viability with and without AP20187, and percentage killing, in large and small scale were about 3.9%, about 84.0%, about 95.4% (n=3) and about 6.6%, about 79.3%, about 91.4% (n=5) respectively. AP20187 was non-toxic to non-transduced cells: viability with and without AP20187 was about 86%±9% and 87%±8% respectively (n=6).
To assess the stability of transgene expression and function, cells were maintained in T cell culture medium and low dose IL-2 (50 U/ml) until […] after transduction. A portion of cells was then reactivated with OKT3/anti-CD28. CD19 expression was analyzed by flow cytometry 48 to 72 hours later, and suicide gene function was assessed by treatment with 10 nM AP20187. The obtained are for cells from day 5 post transduction (ie, 1 day after CD 19 selection) and day 24 post transduction, with or without 48-72 hours of reactivation (5 experiments). In 2 experiments, CD25 selection was performed after OKT3/aCD28 activation to further enrich activated cells. Error bars represent standard deviation. * indicates p<0.05 when compared to cells from day 5 post transduction. By day 24, surface CD19 expression fell from about 98%±1% to about 88%±4% (p<0.05) with a parallel decrease in mean fluorescence intensity (MFI) from 793±128 to 478±107 (p<0.05) (see FIG. 13B). Similarly, there was a significant reduction in suicide gene function: residual viability was 19.6±5.6% following treatment with AP20187; after correction for baseline viability of 54.8±20.9%, this equated to killing efficiency of only 63.1±6.2%.
To determine whether the decrease in transgene expression with time was due to reduced transcription following T cell quiescence or to elimination of transduced cells, a portion of cells were reactivated on day 22 post transduction with OKT3 and anti-CD28 antibody. […] CD19 expression increased from about 88%±4% to about 93%±4% (p<0.01) and CD19 MFI increased from 478±107 to 643±174 (p<0.01). […] Killing of the CD25 negative fraction was 78.6±9.1%.

[4] = 10 nM, 24 hours, day after CD19 selection

CC[C@H](C(=O)N1CCCC[C@H]1C(=O)O[C@H](CCc1ccc(OC)c(OC)c1)c1cccc(OCC(=O)NCC(CNC(=O)COc2cccc([C@@H](CCc3ccc(OC)c(OC)c3)OC(=O)[C@@H]3CCCCN3C(=O)[C@@H](CC)c3cc(OC)c(OC)c(OC)c3)c2)CN(C)C)c1)c1cc(OC)c(OC)c(OC)c1 [AP20187]
apoptosis index ([1]; iCasp9-negative MSCs, 50 nM, 24 hrs, listed as CID): 20±7% and 19%
apoptotic death ([1]; iCasp9-positive MSCs, 50 nM, 24 hrs): 93±1%
apoptotic cells ([1]; magnetically immunoselected iCasp9-CD19-positive MSCs): More than 95%
annexin positive cells ([1]; non-transduced control MSC (Control/CID), 50 nM): 15%
reduction in the number of human CD3+/GFP+ T cells in tumors [2]: > 99%
killing efficiency after correction for baseline viability [3, 4]: about 92.9%±3.8
viable cells (annexin V and 7-AAD negative) [3, 4]: about 5.5%±2.5
killing efficiency ([3]; OKT3/aCD28-reactivated cells, day 24 or 25): ~84.6%±8.0
mean viability ([3]; small-scale CD19 selection, n=5): about 6.6%
viability of non-transduced cells ([3]; with AP20187, n=6): about 86%±9
